Measured values from PubChem BioAssay AID248 (DTP/NCI, 2004).
Where “and” joins values, the source holds several entries; their conditions need not be identical. Equal entries are not always repeated. Toxic doses and inconclusive results are not listed. Rule as the data show it: active = T/C of 150% or more; inactive = T/C below 125%.

System: L1210 leukemia ip in BDF1 mice, survival T/C
Experiment: NCI In Vivo Anticancer Drug Screen. Data for tumor model L1210 Leukemia (intraperitoneal) in B6D2F1 (BDF1) mice
Conditions: higher = longer survival
Method in brief: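 Read-out is survival time, reported as the treated-group measurement over the vehicle-control measurement.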

Measured: T/C

C[n+]1c2ccccc2nc2c(N)cc(N)cc21
inactive: endpoint: mean survival time, dose: 1.0 mg/kg/injection, schedule: Q03HX024 (ip), vehicle: saline 101 % of control | endpoint: mean survival time, dose: 1.25 mg/kg/injection, schedule: Q#A X030 (ip), vehicle: water 104 % of control | endpoint: mean survival time, dose: 2.0 mg/kg/injection, schedule: Q01DX005 (iv), vehicle: saline 99 % of control | endpoint: mean survival time, dose: 2.0 mg/kg/injection, schedule: Q01DX009 (ip), vehicle: saline 96 % of control | endpoint: mean survival time, dose: 2.0 mg/kg/injection, schedule: Q03HX016 (ip), vehicle: saline 101 % of control | endpoint: mean survival time, dose: 2.0 mg/kg/injection, schedule: Q03HX024 (ip), vehicle: saline 107 % of control | endpoint: mean survival time, dose: 2.5 mg/kg/injection, schedule: Q01DX010 (oral), vehicle: water 105 % of control | endpoint: mean survival time, dose: 2.5 mg/kg/injection, schedule: Q#A X030 (ip), vehicle: water 107 % of control | endpoint: mean survival time, dose: 3.0 mg/kg/injection, schedule: Q01DX Z (ip), vehicle: saline 109 % of control | endpoint: mean survival time, dose: 3.12 mg/kg/injection, schedule: Q01DX001 (ip), vehicle: water 109 % of control and 110 % of control | endpoint: mean survival time, dose: 4.0 mg/kg/injection, schedule: Q01DX001 (iv), vehicle: saline 94 % of control | endpoint: mean survival time, dose: 4.0 mg/kg/injection, schedule: Q01DX005 (iv), vehicle: saline 96 % of control | endpoint: mean survival time, dose: 4.0 mg/kg/injection, schedule: Q01DX007 (iv), vehicle: saline 113 % of control | endpoint: mean survival time, dose: 4.0 mg/kg/injection, schedule: Q01DX009 (ip), vehicle: saline 104 % of control | endpoint: mean survival time, dose: 4.0 mg/kg/injection, schedule: Q01DX Z (sc), vehicle: steriod suspending solution 103 % of control | endpoint: mean survival time, dose: 4.0 mg/kg/injection, schedule: Q03HX008 (ip), vehicle: saline 107 % of control | endpoint: mean survival time, dose: 4.0 mg/kg/injection, schedule: Q03HX016 (ip), vehicle: saline 96 % of control | endpoint: mean survival time, dose: 4.0 mg/kg/injection, schedule: Q03HX024 (ip), vehicle: saline 100 % of control | endpoint: mean survival time, dose: 4.4 mg/kg/injection, schedule: Q#A X Z (ip), vehicle: carboxymethylcellulose (CMC) 110 % of control | endpoint: mean survival time, dose: 5.0 mg/kg/injection, schedule: Q01DX001 (ip), vehicle: saline 103 % of control | endpoint: mean survival time, dose: 5.0 mg/kg/injection, schedule: Q01DX009 (ip), vehicle: saline 111 % of control | endpoint: mean survival time, dose: 5.0 mg/kg/injection, schedule: Q01DX Z (im), vehicle: saline 104 % of control | endpoint: mean survival time, dose: 5.0 mg/kg/injection, schedule: Q01DX Z (ip), vehicle: saline 112 % of control | endpoint: mean survival time, dose: 6.25 mg/kg/injection, schedule: Q01DX001 (ip), vehicle: water 110 % of control | endpoint: mean survival time, dose: 6.65 mg/kg/injection, schedule: Q#A X Z (ip), vehicle: carboxymethylcellulose (CMC) 104 % of control | endpoint: mean survival time, dose: 8.0 mg/kg/injection, schedule: Q01DX001 (iv), vehicle: saline 96 % of control | endpoint: mean survival time, dose: 8.0 mg/kg/injection, schedule: Q01DX005 (iv), vehicle: saline 93 % of control | endpoint: mean survival time, dose: 8.0 mg/kg/injection, schedule: Q01DX007 (iv), vehicle: saline 104 % of control | endpoint: mean survival time, dose: 8.0 mg/kg/injection, schedule: Q01DX009 (ip), vehicle: saline 101 % of control | endpoint: mean survival time, dose: 8.0 mg/kg/injection, schedule: Q01DX Z (sc), vehicle: steriod suspending solution 109 % of control | endpoint: mean survival time, dose: 8.0 mg/kg/injection, schedule: Q03HX008 (ip), vehicle: saline 110 % of control | endpoint: mean survival time, dose: 8.0 mg/kg/injection, schedule: Q03HX016 (ip), vehicle: saline 101 % of control | endpoint: mean survival time, dose: 8.0 mg/kg/injection, schedule: Q03HX024 (ip), vehicle: saline 112 % of control | endpoint: mean survival time, dose: 8.0 mg/kg/injection, schedule: Q04DX003 (ip), vehicle: saline 101 % of control | endpoint: mean survival time, dose: 10.0 mg/kg/injection, schedule: Q01DX001 (ip), vehicle: saline 103 % of control | endpoint: mean survival time, dose: 10.0 mg/kg/injection, schedule: Q01DX010 (oral), vehicle: water 113 % of control | endpoint: mean survival time, dose: 10.0 mg/kg/injection, schedule: Q01DX Z (im), vehicle: saline 106 % of control | endpoint: mean survival time, dose: 12.5 mg/kg/injection, schedule: Q01DX001 (ip), vehicle: water 112 % of control | endpoint: mean survival time, dose: 16.0 mg/kg/injection, schedule: Q01DX001 (iv), vehicle: saline 96 % of control | endpoint: mean survival time, dose: 16.0 mg/kg/injection, schedule: Q01DX005 (iv), vehicle: saline 102 % of control | endpoint: mean survival time, dose: 16.0 mg/kg/injection, schedule: Q01DX009 (sc), vehicle: saline 104 % of control | endpoint: mean survival time, dose: 16.0 mg/kg/injection, schedule: Q01DX Z (sc), vehicle: steriod suspending solution 104 % of control and 105 % of control | endpoint: mean survival time, dose: 16.0 mg/kg/injection, schedule: Q03HX008 (ip), vehicle: saline 107 % of control | endpoint: mean survival time, dose: 16.0 mg/kg/injection, schedule: Q03HX016 (ip), vehicle: saline 104 % of control and 113 % of control | endpoint: mean survival time, dose: 16.0 mg/kg/injection, schedule: Q04DX003 (ip), vehicle: saline 103 % of control | endpoint: mean survival time, dose: 16.0 mg/kg/injection, schedule: Q08DX002 (ip), vehicle: saline 102 % of control | endpoint: mean survival time, dose: 20.0 mg/kg/injection, schedule: Q01DX001 (ip), vehicle: saline 101 % of control | endpoint: mean survival time, dose: 20.0 mg/kg/injection, schedule: Q01DX009 (ip), vehicle: saline 110 % of control | endpoint: mean survival time, dose: 20.0 mg/kg/injection, schedule: Q01DX010 (oral), vehicle: water 107 % of control and 111 % of control | endpoint: mean survival time, dose: 20.0 mg/kg/injection, schedule: Q01DX Z (im), vehicle: saline 108 % of control | endpoint: mean survival time, dose: 20.0 mg/kg/injection, schedule: Q01DX Z (ip), vehicle: saline 114 % of control | endpoint: mean survival time, dose: 20.0 mg/kg/injection, schedule: Q01DX Z (oral), vehicle: saline 106 % of control | endpoint: mean survival time, dose: 25.0 mg/kg/injection, schedule: Q01DX001 (ip), vehicle: other 112 % of control | endpoint: mean survival time, dose: 32.0 mg/kg/injection, schedule: Q01DX001 (ip), vehicle: saline 108 % of control | endpoint: mean survival time, dose: 32.0 mg/kg/injection, schedule: Q01DX001 (iv), vehicle: saline 96 % of control | endpoint: mean survival time, dose: 32.0 mg/kg/injection, schedule: Q01DX009 (oral), vehicle: saline 102 % of control | endpoint: mean survival time, dose: 32.0 mg/kg/injection, schedule: Q01DX009 (sc), vehicle: saline 106 % of control | endpoint: mean survival time, dose: 32.0 mg/kg/injection, schedule: Q01DX Z (sc), vehicle: steriod suspending solution 100 % of control | endpoint: mean survival time, dose: 32.0 mg/kg/injection, schedule: Q03HX016 (ip), vehicle: saline 110 % of control | endpoint: mean survival time, dose: 32.0 mg/kg/injection, schedule: Q04DX003 (ip), vehicle: saline 107 % of control | endpoint: mean survival time, dose: 32.0 mg/kg/injection, schedule: Q08DX002 (ip), vehicle: saline 98 % of control | endpoint: mean survival time, dose: 37.0 mg/kg/injection, schedule: Q01DX001 (ip), vehicle: other 107 % of control | endpoint: mean survival time, dose: 40.0 mg/kg/injection, schedule: Q01DX001 (ip), vehicle: saline 110 % of control | endpoint: mean survival time, dose: 40.0 mg/kg/injection, schedule: Q01DX009 (ip), vehicle: saline 97 % of control | endpoint: mean survival time, dose: 40.0 mg/kg/injection, schedule: Q01DX010 (oral), vehicle: water 104 % of control | endpoint: mean survival time, dose: 40.0 mg/kg/injection, schedule: Q01DX Z (ip), vehicle: saline 109 % of control | endpoint: mean survival time, dose: 50.0 mg/kg/injection, schedule: Q01DX001 (ip), vehicle: water 110 % of control | endpoint: mean survival time, dose: 56.0 mg/kg/injection, schedule: Q01DX001 (ip), vehicle: other 111 % of control | endpoint: mean survival time, dose: 61.6 mg/kg/injection, schedule: Q07DX Z (ip), vehicle: carboxymethylcellulose (CMC) 112 % of control | endpoint: mean survival time, dose: 64.0 mg/kg/injection, schedule: Q01DX001 (ip), vehicle: saline 114 % of control | endpoint: mean survival time, dose: 64.0 mg/kg/injection, schedule: Q01DX001 (oral), vehicle: saline 106 % of control | endpoint: mean survival time, dose: 64.0 mg/kg/injection, schedule: Q01DX001 (sc), vehicle: saline 98 % of control | endpoint: mean survival time, dose: 64.0 mg/kg/injection, schedule: Q01DX009 (oral), vehicle: saline 98 % of control | endpoint: mean survival time, dose: 64.0 mg/kg/injection, schedule: Q01DX Z (sc), vehicle: steriod suspending solution 101 % of control | endpoint: mean survival time, dose: 64.0 mg/kg/injection, schedule: Q08DX002 (ip), vehicle: saline 104 % of control | endpoint: mean survival time, dose: 80.0 mg/kg/injection, schedule: Q01DX001 (ip), vehicle: saline 103 % of control | endpoint: mean survival time, dose: 80.0 mg/kg/injection, schedule: Q01DX010 (oral), vehicle: water 110 % of control | endpoint: mean survival time, dose: 93.1 mg/kg/injection, schedule: Q07DX Z (ip), vehicle: carboxymethylcellulose (CMC) 110 % of control | endpoint: mean survival time, dose: 128.0 mg/kg/injection, schedule: Q01DX001 (oral), vehicle: saline 98 % of control | endpoint: mean survival time, dose: 128.0 mg/kg/injection, schedule: Q01DX001 (sc), vehicle: saline 98 % of control | endpoint: mean survival time, dose: 128.0 mg/kg/injection, schedule: Q08DX002 (ip), vehicle: saline 104 % of control | endpoint: mean survival time, dose: 140.0 mg/kg/injection, schedule: Q07DX Z (ip), vehicle: carboxymethylcellulose (CMC) 112 % of control | endpoint: mean survival time, dose: 160.0 mg/kg/injection, schedule: Q01DX010 (oral), vehicle: water 110 % of control | endpoint: mean survival time, dose: 256.0 mg/kg/injection, schedule: Q01DX001 (oral), vehicle: saline 98 % of control | endpoint: mean survival time, dose: 256.0 mg/kg/injection, schedule: Q01DX001 (sc), vehicle: saline 105 % of control | endpoint: mean survival time, dose: 256.0 mg/kg/injection, schedule: Q01DX009 (oral), vehicle: saline 104 % of control and 114 % of control | endpoint: mean survival time, dose: 288.0 mg/kg/injection, schedule: Q01DX Z (oral), vehicle: other 103 % of control | endpoint: mean survival time, dose: 432.0 mg/kg/injection, schedule: Q01DX Z (oral), vehicle: other 95 % of control | endpoint: mean survival time, dose: 512.0 mg/kg/injection, schedule: Q01DX001 (oral), vehicle: saline 106 % of control | endpoint: mean survival time, dose: 512.0 mg/kg/injection, schedule: Q01DX009 (oral), vehicle: saline 112 % of control | endpoint: mean survival time, dose: 1024.0 mg/kg/injection, schedule: Q01DX001 (oral), vehicle: saline 109 % of control | endpoint: median survival time, dose: 5.0 mg/kg/injection, schedule: Q01DX009 (ip), vehicle: saline 110 % of control and 113 % of control
